Source: patent US20100029702A1, “Method For Identification of Compound Having Anti-Anxiety Effect” (priority 2006, published 2010)

Target: T1, protein encoded by ph01207 (Homo sapiens, UniProt O60241, DEL308-362)
T1 construct: expressed in transfected cells; host or cells: CHO-K1 (HA-ph01207#10-6, FERM BP-10101), T8HA-attR/pCINeo
T1 sequence (O60241 with tags, fused parts or gaps DEL308-362): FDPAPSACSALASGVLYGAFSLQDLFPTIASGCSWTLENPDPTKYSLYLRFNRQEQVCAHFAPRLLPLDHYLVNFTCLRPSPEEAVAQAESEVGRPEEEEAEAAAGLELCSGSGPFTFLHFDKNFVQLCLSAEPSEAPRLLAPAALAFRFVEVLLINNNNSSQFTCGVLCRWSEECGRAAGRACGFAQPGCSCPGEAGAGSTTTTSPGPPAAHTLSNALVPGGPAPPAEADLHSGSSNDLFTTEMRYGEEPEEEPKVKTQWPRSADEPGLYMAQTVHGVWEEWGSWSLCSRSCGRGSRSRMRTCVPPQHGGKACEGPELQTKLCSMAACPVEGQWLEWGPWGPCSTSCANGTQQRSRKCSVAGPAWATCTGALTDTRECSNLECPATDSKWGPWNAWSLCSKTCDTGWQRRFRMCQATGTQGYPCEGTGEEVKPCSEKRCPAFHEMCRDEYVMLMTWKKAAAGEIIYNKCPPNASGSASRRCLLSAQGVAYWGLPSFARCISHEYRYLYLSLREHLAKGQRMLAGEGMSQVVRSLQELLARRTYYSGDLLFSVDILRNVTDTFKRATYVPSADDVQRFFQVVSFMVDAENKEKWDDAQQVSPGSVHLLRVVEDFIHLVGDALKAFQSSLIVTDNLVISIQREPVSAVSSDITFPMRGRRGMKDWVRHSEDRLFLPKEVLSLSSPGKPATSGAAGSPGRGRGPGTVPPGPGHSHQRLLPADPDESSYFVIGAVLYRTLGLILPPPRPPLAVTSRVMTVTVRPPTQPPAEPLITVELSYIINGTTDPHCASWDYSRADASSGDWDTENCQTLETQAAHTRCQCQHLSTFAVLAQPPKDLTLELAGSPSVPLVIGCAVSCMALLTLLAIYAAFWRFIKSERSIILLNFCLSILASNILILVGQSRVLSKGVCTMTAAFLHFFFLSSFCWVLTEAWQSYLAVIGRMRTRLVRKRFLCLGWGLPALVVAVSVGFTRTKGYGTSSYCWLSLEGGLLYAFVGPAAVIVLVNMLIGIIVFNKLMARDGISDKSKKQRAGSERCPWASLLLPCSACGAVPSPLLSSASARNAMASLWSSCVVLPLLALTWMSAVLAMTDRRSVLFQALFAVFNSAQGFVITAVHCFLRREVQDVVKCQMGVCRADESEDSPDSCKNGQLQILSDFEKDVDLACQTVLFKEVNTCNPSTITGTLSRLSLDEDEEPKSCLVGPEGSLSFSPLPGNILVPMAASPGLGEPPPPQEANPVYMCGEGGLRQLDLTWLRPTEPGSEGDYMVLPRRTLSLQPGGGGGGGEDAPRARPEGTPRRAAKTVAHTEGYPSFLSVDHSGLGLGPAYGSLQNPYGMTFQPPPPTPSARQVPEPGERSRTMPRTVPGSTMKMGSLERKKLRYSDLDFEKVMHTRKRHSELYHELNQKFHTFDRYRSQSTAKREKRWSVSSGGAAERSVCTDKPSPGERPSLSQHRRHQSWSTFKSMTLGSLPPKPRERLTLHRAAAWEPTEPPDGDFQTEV
Test: Changes in intracellular Ca2+ concentration in HA-ph01207#10-6 cell strain (CHO-K1 stably expressing ph01207)
Assay type: cell-based
Method: Changes in the intracellular calcium (Ca^2+) concentration induced by CCK-8S (SEQ ID NO: 14), CCK-8NS, or CCK-4 were measured using the cell strains expressing ph01207 prepared in Example 2. The cell strains prepared in Example 2 were eight strains that expressed the protein encoded by ph01207 as FLAG-tag fusion proteins and four strains that expressed the protein encoded by ph01207 as HA-tag fusion proteins. Of these, the HA-ph01207#10-6 cell strain, a strain obtained by cloning one of the cell strains that stably expressed the protein encoded by ph01207 as HA-tag fusion proteins, was used in this example. CCK-8NS was a CCK octapeptide having the same amino acid sequence as that of CCK-8S (SEQ ID NO: 14), but a region from the C terminus to the seventh tyrosine residue was not sulfated. CCK-4 was a tetrapeptide comprising residues from the C terminus to the fourth amino acid of CCK-8S (SEQ ID NO: 14).
The specific method for measuring changes in the intracellular Ca^2+ concentration in the HA-ph01207#10-6 cell strain induced by CCK-8S (SEQ ID NO: 14) and the results are described below. The HA-ph01207#10-6 cell strain was seeded on a 96-well plate (a plate with a black wall and a transparent bottom) at a cell count of 2×10^4/100 μL medium/well and cultured at 37° C. in the presence of 5% CO2. As a medium, DMEM/F12 (Gibco) containing 10% fetal calf serum (Moregate) was used. On the following day, 50 μL of the medium was removed from each well, 50 μL of a loading buffer was added to each well, and the mixture was reacted at room temperature for 1.5 h, so that a fluorescent dye contained in the loading buffer should be taken up into the cell. The loading buffer was prepared by dissolving component A of the FLIPR Calcium 3 Assay Kit (Molecular Device) in a solution obtained by adding 0.1 mL of 500 mM probenecid (Sigma) to 9.9 mL of component B. After reaction, changes over time in the fluorescence intensity in each well after addition of CCK-8S (Peptide Institute, Inc.) were measured using the FLEX station (Molecular Device). Furthermore, similar measurement was performed for CCK-8NS (Peptide Institute, Inc.) and CCK-4 (Peptide Institute, Inc.). 0.52 mg of CCK-8S (SEQ ID NO: 14) was dissolved in 4.5 mL of 1% NaHCO3 (Wako) to prepare a solution having 0.1 mM concentration. 0.53 mg of CCK-8NS was dissolved in 0.50 mL of dimethyl sulfoxide (DMSO, Sigma), and then 4.50 mL of redistilled water H2O was added to prepare a solution having 0.1 mM concentration. 0.54 mg of CCK-4 was dissolved in 0.46 mL of DMSO, 4.09 mL of redistilled water was added to prepare a solution having 0.2 mM concentration. […]

| Compound | Change in intracellular Ca2+ concentration (fluorescence intensity) (A23187 10 μM, positive control) | Change in intracellular Ca2+ concentration (fluorescence intensity) (peptide at final concentration 1 nM) |
| --- | --- | --- |
| CNc1ccc2oc(C[C@H]3O[C@@]4(CC[C@H]3C)O[C@H]([C@H](C)C(=O)c3ccc[nH]3)[C@H](C)C[C@H]4C)nc2c1C(=O)O [A23187] | increased | – |
| cholecystokinin octapeptide sulfated form [CCK-8S] | – | increased |
